Results published in US10047050B2, “3,4-di-substituted pyridine compound, methods of using and compositions comprising the same” (ARDEA BIOSCIENCES, INC., priority 2011, dated 2018).
Values joined by “and” are separate entries in the source; they are usually repeats but may differ in a detail not shown here. Equal values may be shown once.

System: serum uric acid
Test: Multi-dose Phase I clinical trial, serum uric acid (sUA), once daily for 10 days
Assay type: in vivo, human
Settings: for Absolute sUA concentration: individual subjects 4-12; for Absolute sUA concentration, Mean (4-10): mean of subjects 4-10
Text: A Phase 1, Randomized, Double-Blind, Placebo-Controlled Study to Evaluate Safety, Tolerability, Pharmacokinetics and Preliminary Food Effect of Multiple Rising Doses of a URAT1 Inhibitor, in Healthy Adult Male Volunteers.
Fasted subjects receive oral doses of active or placebo, once daily, for 10 days, at the following doses:
36 subjects in 3 dose groups, 12 subjects/group, are randomized […] to receive active (9/group) or placebo ([…]). All study procedures are the same regardless of whether subject receives active or placebo. Total duration of subject participation, including screening period, is ˜2-4 weeks, and the total volume of blood collected from each subject during the entire study <500 mL, (less than typically collected during a volunteer blood donation).
5 mg, active and placebo, tablets packaged in 35 count HDPE bottles, stored at controlled room temperature (15-30° C.). Placebo tablets are designed to match the active tablets—identical size, form, taste, and color, and containing the same excipients. 1 mg doses were administered as oral solutions.
Subjects dosed in the morning of Days 1-10 with ˜240 mL of room temp water.
Urine, serum and plasma samples collected periodically
PD samples frozen (−20° C.) and stored; all samples from a given subject assayed in a single analytical run.

[1] = group 7, 1 mg once daily for 10 days, Time 192, mean of subjects 4-12
[2] = group 7, 1 mg once daily for 10 days, Time 216, mean of subjects 4-12
[3] = group 7, 1 mg once daily for 10 days, Time 222 (post dosing), mean of subjects 4-12
[4] = group 7, 1 mg once daily for 10 days, Time 228 (post dosing), mean of subjects 4-12
[5] = group 7, 1 mg once daily for 10 days, Time 240 (post dosing), mean of subjects 4-12
[6] = group 7, 1 mg once daily for 10 days, Time 246 (post dosing), mean of subjects 4-12
[7] = group 7, 1 mg once daily for 10 days, Time 252 (post dosing), mean of subjects 4-12
[8] = group 7, 1 mg once daily for 10 days, Time 264 (post dosing), mean of subjects 4-12
[9] = group 7, 1 mg once daily for 10 days, Time 270 (post dosing), mean of subjects 4-12
[10] = group 7, 1 mg once daily for 10 days, Time 288 (post dosing), mean of subjects 4-12
[11] = group 7, 1 mg once daily for 10 days, Time 312 (post dosing), mean of subjects 4-12

CC(C)(Sc1ccncc1-c1ccc(C#N)c2ccccc12)C(=O)O [2-((3-(4-cyanonaphthalen-1-yl)pyridin-4-yl)thio)-2-methylpropanoic acid]
Absolute sUA concentration, Mean (4-12) (group 7, 1 mg once daily for 10 days, Time 168, mean of subjects 4-12): 6.1 mg/dL | Absolute sUA concentration (group 7, 1 mg once daily for 10 days, Time 192): 4.6 mg/dL and 5.0 mg/dL and 4.9 mg/dL and 6.5 mg/dL and 6.1 mg/dL and 5.9 mg/dL and 5.6 mg/dL and 5.1 mg/dL and 5.5 mg/dL | % sUA change (from baseline), Mean (4-12) [1]: −11.4% | Absolute sUA concentration, Mean (4-12) [1]: 5.5 mg/dL | Absolute sUA concentration (group 7, 1 mg once daily for 10 days, Time 216): 4.7 mg/dL (2×) and 4.9 mg/dL (2×) and 6.1 mg/dL and 5.8 mg/dL and 5.3 mg/dL and 5.6 mg/dL and 5.9 mg/dL | % sUA change (from baseline), Mean (4-12) [2]: −13.6% | Absolute sUA concentration, Mean (4-12) [2]: 5.3 mg/dL | Absolute sUA concentration (group 7, 1 mg once daily for 10 days, Time 222 (post dosing)): 4.7 mg/dL and 5.2 mg/dL and 4.9 mg/dL and 6.3 mg/dL and 5.9 mg/dL and 5.8 mg/dL and 5.4 mg/dL and 5.0 mg/dL and 5.5 mg/dL | % sUA change (from baseline), Mean (4-12) [3]: −12.2% | Absolute sUA concentration, Mean (4-12) [3]: 5.4 mg/dL | Absolute sUA concentration (group 7, 1 mg once daily for 10 days, Time 228 (post dosing)): 4.3 mg/dL and 4.8 mg/dL (2×) and 4.9 mg/dL and 6.2 mg/dL and 5.6 mg/dL and 5.5 mg/dL and 5.3 mg/dL and 5.4 mg/dL | % sUA change (from baseline), Mean (4-12) [4]: −15.6% | Absolute sUA concentration, Mean (4-12) [4]: 5.2 mg/dL | Absolute sUA concentration (group 7, 1 mg once daily for 10 days, Time 240 (post dosing)): 4.8 mg/dL and 5.5 mg/dL and 5.3 mg/dL and 6.9 mg/dL and 6.2 mg/dL (2×) and 5.9 mg/dL and 5.2 mg/dL and 6.0 mg/dL | % sUA change (from baseline), Mean (4-12) [5]: −6.3% | Absolute sUA concentration, Mean (4-12) [5]: 5.8 mg/dL | Absolute sUA concentration (group 7, 1 mg once daily for 10 days, Time 246 (post dosing)): 4.4 mg/dL | % sUA change (from baseline), Mean (4-12) [6]: −13.2% | Absolute sUA concentration, Mean (4-12) [6]: 5.4 mg/dL | % sUA change (from baseline), Mean (4-12) [7]: −10.6% | Absolute sUA concentration, Mean (4-12) [7]: 5.5 mg/dL | % sUA change (from baseline), Mean (4-12) [8]: −10.3% | Absolute sUA concentration, Mean (4-12) [8]: 5.5 mg/dL | % sUA change (from baseline), Mean (4-12) [9]: −17.4% | Absolute sUA concentration, Mean (4-12) [9]: 5.1 mg/dL | % sUA change (from baseline), Mean (4-12) [10]: −19.8% | Absolute sUA concentration, Mean (4-12) [10]: 5.0 mg/dL | % sUA change (from baseline), Mean (4-12) [11]: −14.9% | Absolute sUA concentration, Mean (4-12) [11]: 5.3 mg/dL | % sUA change (from baseline), Mean (4-12) (group 8, 5 mg once daily for 10 days, Time 0, mean of active subjects): 0% | Absolute sUA concentration, Mean (4-10) (group 8, 5 mg once daily for 10 days, Time 0): 5.9 mg/dL | % sUA change (from baseline), Mean (4-12) (group 8, 5 mg once daily for 10 days, Time 6, mean of active subjects): −20.5% | Absolute sUA concentration, Mean (4-10) (group 8, 5 mg once daily for 10 days, Time 6): 4.7 mg/dL | % sUA change (from baseline), Mean (4-12) (group 8, 5 mg once daily for 10 days, Time 12, mean of active subjects): −25.6% | Absolute sUA concentration, Mean (4-10) (group 8, 5 mg once daily for 10 days, Time 12): 4.4 mg/dL | % sUA change (from baseline), Mean (4-12) (group 8, 5 mg once daily for 10 days, Time 24, mean of active subjects): −21.1% | Absolute sUA concentration, Mean (4-10) (group 8, 5 mg once daily for 10 days, Time 24): 4.7 mg/dL | % sUA change (from baseline), Mean (4-12) (group 8, 5 mg once daily for 10 days, Time 48, mean of active subjects): −30.9% | Absolute sUA concentration, Mean (4-10) (group 8, 5 mg once daily for 10 days, Time 48): 4.1 mg/dL | % sUA change (from baseline), Mean (4-12) (group 8, 5 mg once daily for 10 days, Time 72, mean of active subjects): −33.7% | Absolute sUA concentration, Mean (4-10) (group 8, 5 mg once daily for 10 days, Time 72): 3.9 mg/dL | % sUA change (from baseline), Mean (4-12) (group 8, 5 mg once daily for 10 days, Time 96, mean of active subjects): −30.4% | Absolute sUA concentration, Mean (4-10) (group 8, 5 mg once daily for 10 days, Time 96): 4.1 mg/dL | % sUA change (from baseline), Mean (4-12) (group 8, 5 mg once daily for 10 days, Time 102, mean of active subjects): −37.8% | Absolute sUA concentration, Mean (4-10) (group 8, 5 mg once daily for 10 days, Time 102): 3.7 mg/dL | % sUA change (from baseline), Mean (4-12) (group 8, 5 mg once daily for 10 days, Time 108, mean of active subjects): −40.2% | Absolute sUA concentration, Mean (4-10) (group 8, 5 mg once daily for 10 days, Time 108): 3.5 mg/dL | % sUA change (from baseline), Mean (4-12) (group 8, 5 mg once daily for 10 days, Time 120, mean of active subjects): −30% | Absolute sUA concentration, Mean (4-10) (group 8, 5 mg once daily for 10 days, Time 120): 4.1 mg/dL | % sUA change (from baseline), Mean (4-12) (group 8, 5 mg once daily for 10 days, Time 144, mean of active subjects): −35.2% | Absolute sUA concentration, Mean (4-10) (group 8, 5 mg once daily for 10 days, Time 144): 3.8 mg/dL | % sUA change (from baseline), Mean (4-12) (group 8, 5 mg once daily for 10 days, Time 168, mean of active subjects): −38.1% | Absolute sUA concentration, Mean (4-10) (group 8, 5 mg once daily for 10 days, Time 168): 3.6 mg/dL | % sUA change (from baseline), Mean (4-12) (group 8, 5 mg once daily for 10 days, Time 192, mean of active subjects): −35.7% | Absolute sUA concentration, Mean (4-10) (group 8, 5 mg once daily for 10 days, Time 192): 3.8 mg/dL | % sUA change (from baseline), Mean (4-12) (group 8, 5 mg once daily for 10 days, Time 216, mean of active subjects): −33.4% | Absolute sUA concentration, Mean (4-10) (group 8, 5 mg once daily for 10 days, Time 216): 3.9 mg/dL | % sUA change (from baseline), Mean (4-12) (group 8, 5 mg once daily for 10 days, Time 222 (post dosing), mean of active subjects): −39.6% | Absolute sUA concentration, Mean (4-10) (group 8, 5 mg once daily for 10 days, Time 222 (post dosing)): 3.6 mg/dL | % sUA change (from baseline), Mean (4-12) (group 8, 5 mg once daily for 10 days, Time 228 (post dosing), mean of active subjects): −41.4% | Absolute sUA concentration, Mean (4-10) (group 8, 5 mg once daily for 10 days, Time 228 (post dosing)): 3.5 mg/dL | % sUA change (from baseline), Mean (4-12) (group 8, 5 mg once daily for 10 days, Time 240 (post dosing), mean of active subjects): −31.2% | Absolute sUA concentration, Mean (4-10) (group 8, 5 mg once daily for 10 days, Time 240 (post dosing)): 4.1 mg/dL | % sUA change (from baseline), Mean (4-12) (group 8, 5 mg once daily for 10 days, Time 246 (post dosing), mean of active subjects): −35.8% | Absolute sUA concentration, Mean (4-10) (group 8, 5 mg once daily for 10 days, Time 246 (post dosing)): 3.8 mg/dL | % sUA change (from baseline), Mean (4-12) (group 8, 5 mg once daily for 10 days, Time 252 (post dosing), mean of active subjects): −39.1% | Absolute sUA concentration, Mean (4-10) (group 8, 5 mg once daily for 10 days, Time 252 (post dosing)): 3.6 mg/dL | % sUA change (from baseline), Mean (4-12) (group 8, 5 mg once daily for 10 days, Time 264 (post dosing), mean of active subjects): −31.9% | Absolute sUA concentration, Mean (4-10) (group 8, 5 mg once daily for 10 days, Time 264 (post dosing)): 4.0 mg/dL | % sUA change (from baseline), Mean (4-12) (group 8, 5 mg once daily for 10 days, Time 270 (post dosing), mean of active subjects): −22.9% | Absolute sUA concentration, Mean (4-10) (group 8, 5 mg once daily for 10 days, Time 270 (post dosing)): 4.5 mg/dL | % sUA change (from baseline), Mean (4-12) (group 8, 5 mg once daily for 10 days, Time 288 (post dosing), mean of active subjects): −24.8% | Absolute sUA concentration, Mean (4-10) (group 8, 5 mg once daily for 10 days, Time 288 (post dosing)): 4.4 mg/dL | % sUA change (from baseline), Mean (4-12) (group 8, 5 mg once daily for 10 days, Time 312 (post dosing), mean of active subjects): −13.7% | Absolute sUA concentration, Mean (4-10) (group 8, 5 mg once daily for 10 days, Time 312 (post dosing)): 5.1 mg/dL
